Legend:
Assay in all cases: Post-emergence glasshouse spray test, visual percentage phytotoxicity after 13 days
Assay type in all cases: in vivo
[1] = tested on: Alopecurus myosuroides (ALOMY); conditions: for ALOMY percentage phytotoxicity: B1
How it was run: (§1)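 Seeds were sown in sterilised soil and grown 8 days; plants were then sprayed at 500 l/Ha with diluted IF50-formulated compound, kept 13 days at 24/18 °C with 15 h light, and scored visually for percent damage against untreated controls, with 2–4 randomised replicates.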

[2] = tested on: Digitaria sanguinalis (DIGSA); conditions: for DIGSA percentage phytotoxicity: B1
How it was run: as §1

[3] = tested on: Setaria faberi (SETFA); conditions: for SETFA percentage phytotoxicity: B1
How it was run: as §1

[4] = tested on: Ipomoea hederacea (IPOHE); conditions: for IPOHE percentage phytotoxicity: B1
How it was run: as §1

[5] = tested on: Amaranthus retroflexus (AMARE); conditions: for AMARE percentage phytotoxicity: B1
How it was run: as §1

[6] = tested on: Lolium perenne (LOLPE); conditions: for LOLPE percentage phytotoxicity: B1
How it was run: as §1

[7] = tested on: Abutilon threophrasti (ABUTH); conditions: for ABUTH percentage phytotoxicity: B1
How it was run: as §1

[8] = tested on: Echinochloa crus-galli (ECHCG)
How it was run: as §1

[9] = tested on: Chenopodium album (CHEAL); conditions: for CHEAL percentage phytotoxicity: B1
How it was run: as §1

[10] = tested on: Stellaria media (STEME); conditions: for STEME percentage phytotoxicity: B1
How it was run: as §1

FC(F)c1cc(-c2c(Cl)cccc2Oc2ncc(Cl)cn2)on1 [A-I]
ALOMY percentage phytotoxicity ([1]; 0.625 g/ha post-emergence): 5% | ALOMY percentage phytotoxicity ([1]; 1.25 g/ha post-emergence): 11% | ALOMY percentage phytotoxicity ([1]; 2.5 g/ha post-emergence): 10% | ALOMY percentage phytotoxicity ([1]; 5 g/ha post-emergence): 43% | ALOMY percentage phytotoxicity ([1]; 10 g/ha post-emergence): 41% | Observed phytotoxicity ALOMY ([1]; B2.2.5, 5 g/ha post-emergence): 14% | Observed phytotoxicity ALOMY ([1]; B2.3.5, 1.25 g/ha post-emergence): 1% | Observed phytotoxicity ALOMY ([1]; B2.4.4, 10 g/ha post-emergence): 41% | DIGSA percentage phytotoxicity ([2]; 0.625 g/ha post-emergence): 6% | DIGSA percentage phytotoxicity ([2]; 1.25 g/ha post-emergence): 25% | DIGSA percentage phytotoxicity ([2]; 2.5 g/ha post-emergence): 34% | DIGSA percentage phytotoxicity ([2]; 5 g/ha post-emergence): 63% | DIGSA percentage phytotoxicity ([2]; 10 g/ha post-emergence): 78% | Observed phytotoxicity DIGSA ([2]; B2.2.3, 5 g/ha post-emergence): 48% | Observed phytotoxicity DIGSA ([2]; B2.3.3, 0.625 g/ha post-emergence): 3% | Observed phytotoxicity DIGSA ([2]; B2.3.3, 1.25 g/ha post-emergence): 9% | Observed phytotoxicity DIGSA ([2]; B2.4.2, 2.5 g/ha post-emergence): 34% | Observed phytotoxicity DIGSA ([2]; B2.4.2, 5 g/ha post-emergence): 63% | Observed phytotoxicity DIGSA ([2]; B2.4.2, 10 g/ha post-emergence): 78% | Observed phytotoxicity DIGSA ([2]; B2.5.1, 2.5 g/ha post-emergence): 34% | Observed phytotoxicity DIGSA ([2]; B2.6.2, 0.625 g/ha post-emergence): 6% | Observed phytotoxicity DIGSA ([2]; B2.6.2, 2.5 g/ha post-emergence): 34% | Observed phytotoxicity DIGSA ([2]; B2.6.2, 10 g/ha post-emergence): 78% | SETFA percentage phytotoxicity ([3]; 0.625 g/ha post-emergence): 7% | SETFA percentage phytotoxicity ([3]; 1.25 g/ha post-emergence): 13% | SETFA percentage phytotoxicity ([3]; 2.5 g/ha post-emergence): 29% | SETFA percentage phytotoxicity ([3]; 5 g/ha post-emergence): 53% | SETFA percentage phytotoxicity ([3]; 10 g/ha post-emergence): 65% | Observed phytotoxicity SETFA ([3]; B2.1.3, 5 g/ha post-emergence): 40% | Observed phytotoxicity SETFA ([3]; B2.2.1, 1.25 g/ha post-emergence): 8% | Observed phytotoxicity SETFA ([3]; B2.2.1, 2.5 g/ha post-emergence): 14% | Observed phytotoxicity SETFA ([3]; B2.2.1, 5 g/ha post-emergence): 51% | Observed phytotoxicity SETFA ([3]; B2.3.1, 0.625 g/ha post-emergence): 3% | Observed phytotoxicity SETFA ([3]; B2.3.1, 1.25 g/ha post-emergence): 8% | Observed phytotoxicity SETFA ([3]; B2.3.1, 2.5 g/ha post-emergence): 14% | Observed phytotoxicity SETFA ([3]; B2.4.1, 2.5 g/ha post-emergence): 29% | Observed phytotoxicity SETFA ([3]; B2.6.1, 0.625 g/ha post-emergence): 7% | Observed phytotoxicity SETFA ([3]; B2.6.1, 2.5 g/ha post-emergence): 29% | IPOHE percentage phytotoxicity ([4]; 0.625 g/ha post-emergence): 32% | IPOHE percentage phytotoxicity ([4]; 1.25 g/ha post-emergence): 50% | IPOHE percentage phytotoxicity ([4]; 2.5 g/ha post-emergence): 80% | IPOHE percentage phytotoxicity ([4]; 5 g/ha post-emergence): 79% | IPOHE percentage phytotoxicity ([4]; 10 g/ha post-emergence): 60% | Observed phytotoxicity IPOHE ([4]; B2.3.6, 0.625 g/ha post-emergence): 24% | Observed phytotoxicity IPOHE ([4]; B2.4.5, 10 g/ha post-emergence): 60% | Observed phytotoxicity IPOHE ([4]; B2.6.4, 10 g/ha post-emergence): 60% | AMARE percentage phytotoxicity ([5]; 0.625 g/ha post-emergence): 60% | AMARE percentage phytotoxicity ([5]; 1.25 g/ha post-emergence): 70% | AMARE percentage phytotoxicity ([5]; 2.5 g/ha post-emergence): 98% | AMARE percentage phytotoxicity ([5]; 5 g/ha post-emergence): 98% | AMARE percentage phytotoxicity ([5]; 10 g/ha post-emergence): 100% | Observed phytotoxicity AMARE ([5]; B2.1.5, 1.25 g/ha post-emergence): 55% | Observed phytotoxicity AMARE ([5]; B2.2.6, 0.625 g/ha post-emergence): 51% | Observed phytotoxicity AMARE ([5]; B2.2.6, 1.25 g/ha post-emergence): 76% | Observed phytotoxicity AMARE ([5]; B2.4.8, 1.25 g/ha post-emergence): 70% | LOLPE percentage phytotoxicity ([6]; 0.625 g/ha post-emergence): 4% | LOLPE percentage phytotoxicity ([6]; 1.25 g/ha post-emergence): 5% | LOLPE percentage phytotoxicity ([6]; 2.5 g/ha post-emergence): 8% | LOLPE percentage phytotoxicity ([6]; 5 g/ha post-emergence): 43% | LOLPE percentage phytotoxicity ([6]; 10 g/ha post-emergence): 30% | Observed phytotoxicity LOLPE ([6]; B2.1.1, 0.625 g/ha post-emergence): 0% | Observed phytotoxicity LOLPE ([6]; B2.1.1, 1.25 g/ha post-emergence): 0% | Observed phytotoxicity LOLPE ([6]; B2.2.4, 1.25 g/ha post-emergence): 0% | Observed phytotoxicity LOLPE ([6]; B2.2.4, 2.5 g/ha post-emergence): 0% | Observed phytotoxicity LOLPE ([6]; B2.2.4, 5 g/ha post-emergence): 14% | Observed phytotoxicity LOLPE ([6]; B2.3.4, 1.25 g/ha post-emergence): 0% | Observed phytotoxicity LOLPE ([6]; B2.3.4, 2.5 g/ha post-emergence): 0% | Observed phytotoxicity LOLPE ([6]; B2.4.3, 10 g/ha post-emergence): 30% | Observed phytotoxicity LOLPE ([6]; B2.5.2, 5 g/ha post-emergence): 21% | Observed phytotoxicity LOLPE ([6]; B2.5.2, 10 g/ha post-emergence): 30% | Observed phytotoxicity LOLPE ([6]; B2.6.3, 10 g/ha post-emergence): 30% | ABUTH percentage phytotoxicity ([7]; 0.625 g/ha post-emergence): 15% | ABUTH percentage phytotoxicity ([7]; 1.25 g/ha post-emergence): 41% | ABUTH percentage phytotoxicity ([7]; 2.5 g/ha post-emergence): 49% | ABUTH percentage phytotoxicity ([7]; 5 g/ha post-emergence): 68% | ABUTH percentage phytotoxicity ([7]; 10 g/ha post-emergence): 68% | Observed phytotoxicity ABUTH ([7]; B2.1.7, 1.25 g/ha post-emergence): 8% | Observed phytotoxicity ABUTH ([7]; B2.1.7, 2.5 g/ha post-emergence): 25% | Observed phytotoxicity ABUTH ([7]; B2.4.6, 0.625 g/ha post-emergence): 15% | Observed phytotoxicity ECHCG ([8]; B2.1.2, 0.625 g/ha post-emergence): 8% | Observed phytotoxicity ECHCG ([8]; B2.1.2, 5 g/ha post-emergence): 20% | Observed phytotoxicity ECHCG ([8]; B2.2.2, 0.625 g/ha post-emergence): 0% | Observed phytotoxicity ECHCG ([8]; B2.2.2, 1.25 g/ha post-emergence): 34% | Observed phytotoxicity ECHCG ([8]; B2.2.2, 5 g/ha post-emergence): 10% | Observed phytotoxicity ECHCG ([8]; B2.3.2, 0.625 g/ha post-emergence): 0% | Observed phytotoxicity ECHCG ([8]; B2.3.2, 1.25 g/ha post-emergence): 4% | Observed phytotoxicity ECHCG ([8]; B2.3.2, 5 g/ha post-emergence): 10% | CHEAL percentage phytotoxicity ([9]; 0.625 g/ha post-emergence): 48% | CHEAL percentage phytotoxicity ([9]; 1.25 g/ha post-emergence): 53% | CHEAL percentage phytotoxicity ([9]; 2.5 g/ha post-emergence): 79% | CHEAL percentage phytotoxicity ([9]; 5 g/ha post-emergence): 76% | CHEAL percentage phytotoxicity ([9]; 10 g/ha post-emergence): 78% | Observed phytotoxicity CHEAL ([9]; B2.1.6, 1.25 g/ha post-emergence): 45% | Observed phytotoxicity CHEAL ([9]; B2.4.7, 1.25 g/ha post-emergence): 53% | STEME percentage phytotoxicity ([10]; 0.625 g/ha post-emergence): 44% | STEME percentage phytotoxicity ([10]; 1.25 g/ha post-emergence): 60% | STEME percentage phytotoxicity ([10]; 2.5 g/ha post-emergence): 88% | STEME percentage phytotoxicity ([10]; 5 g/ha post-emergence): 99% | STEME percentage phytotoxicity ([10]; 10 g/ha post-emergence): 98% | Observed phytotoxicity STEME ([10]; B2.1.4, 1.25 g/ha post-emergence): 40% | Observed phytotoxicity STEME ([10]; B2.3.7, 0.625 g/ha post-emergence): 29% | Observed phytotoxicity STEME ([10]; B2.6.5, 0.625 g/ha post-emergence): 44%
